Read-outs that look alike come from different tables or passages of the source.
Key:
Experiment in all cases: KINOMEscan competitive binding
BIKE = biological target: T1, BIKE (Homo sapiens, UniProt Q9NSY1)
T1 construct: purchased DiscoverX (KINOMEscan)
Source text: (§1) The kinases were expressed as fusions to T7 bacteriophage. This is a sensitive, competitive binding assay where test compounds were used to displace immobilized ATP-site binding probe ligands from kinases of interest. The amount of kinase that remained bound to the immobilized probe ligands on the solid support was quantified. Percentage inhibition data were was plotted on kinome trees using the web-based tool KinMap (http://www.kinhub.org/kinmap) ([60]).

PDGFRα = biological target: T2, PDGFRα (Homo sapiens, UniProt P16234)
T2 construct: purchased DiscoverX (KINOMEscan)
Source text: as §1

MERTK = biological target: T3, MERTK (Homo sapiens, UniProt Q12866)
T3 construct: purchased DiscoverX (KINOMEscan)
T3 sequence (Q12866 21-999): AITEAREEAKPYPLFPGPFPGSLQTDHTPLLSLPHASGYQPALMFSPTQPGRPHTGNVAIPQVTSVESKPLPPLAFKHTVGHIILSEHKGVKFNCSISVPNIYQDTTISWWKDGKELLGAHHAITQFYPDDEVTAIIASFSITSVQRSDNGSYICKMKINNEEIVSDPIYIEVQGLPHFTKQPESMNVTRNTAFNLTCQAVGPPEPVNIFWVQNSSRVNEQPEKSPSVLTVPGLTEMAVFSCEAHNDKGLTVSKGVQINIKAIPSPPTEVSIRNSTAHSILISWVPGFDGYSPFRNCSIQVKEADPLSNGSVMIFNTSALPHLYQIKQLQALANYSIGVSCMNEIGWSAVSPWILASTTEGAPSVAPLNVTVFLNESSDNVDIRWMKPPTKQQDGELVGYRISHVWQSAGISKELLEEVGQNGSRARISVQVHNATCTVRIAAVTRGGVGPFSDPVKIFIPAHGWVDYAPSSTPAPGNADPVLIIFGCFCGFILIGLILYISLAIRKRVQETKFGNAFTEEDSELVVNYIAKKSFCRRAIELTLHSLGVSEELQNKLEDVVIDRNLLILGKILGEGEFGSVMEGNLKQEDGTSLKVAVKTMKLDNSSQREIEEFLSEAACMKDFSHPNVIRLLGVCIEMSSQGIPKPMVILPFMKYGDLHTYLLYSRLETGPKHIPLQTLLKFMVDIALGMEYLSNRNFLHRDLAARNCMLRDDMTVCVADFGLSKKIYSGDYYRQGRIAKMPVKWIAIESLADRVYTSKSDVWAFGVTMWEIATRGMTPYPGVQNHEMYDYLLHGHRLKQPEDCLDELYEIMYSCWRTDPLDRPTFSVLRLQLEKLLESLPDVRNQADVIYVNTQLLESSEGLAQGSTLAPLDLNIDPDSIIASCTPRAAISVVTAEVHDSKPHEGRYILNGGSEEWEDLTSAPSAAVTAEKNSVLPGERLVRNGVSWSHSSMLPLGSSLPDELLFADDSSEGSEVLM
Source text: as §1

CSNK1G1 = biological target: T4, CSNK1G1 (Homo sapiens, UniProt Q9HCP0)
T4 construct: purchased DiscoverX (KINOMEscan)
Source text: as §1

PLK1 = biological target: T5, PLK1 (Homo sapiens, UniProt P53350); settings: n=1, read-out: Percent inhibition, PLK1
T5 construct: purchased DiscoverX (KINOMEscan)
Source text: as §1

KIT = biological target: T6, KIT (Homo sapiens, UniProt P10721)
T6 construct: purchased DiscoverX (KINOMEscan)
Source text: as §1

JAK1(JH2) = biological target: T7, JAK1(JH2) (Homo sapiens, UniProt P23458)
T7 construct: JAK1(JH2); purchased DiscoverX (KINOMEscan)
Source text: as §1

LKB1 = biological target: T8, LKB1 (Homo sapiens, UniProt Q15831)
T8 construct: purchased DiscoverX (KINOMEscan)
T8 sequence (Q15831 1-433): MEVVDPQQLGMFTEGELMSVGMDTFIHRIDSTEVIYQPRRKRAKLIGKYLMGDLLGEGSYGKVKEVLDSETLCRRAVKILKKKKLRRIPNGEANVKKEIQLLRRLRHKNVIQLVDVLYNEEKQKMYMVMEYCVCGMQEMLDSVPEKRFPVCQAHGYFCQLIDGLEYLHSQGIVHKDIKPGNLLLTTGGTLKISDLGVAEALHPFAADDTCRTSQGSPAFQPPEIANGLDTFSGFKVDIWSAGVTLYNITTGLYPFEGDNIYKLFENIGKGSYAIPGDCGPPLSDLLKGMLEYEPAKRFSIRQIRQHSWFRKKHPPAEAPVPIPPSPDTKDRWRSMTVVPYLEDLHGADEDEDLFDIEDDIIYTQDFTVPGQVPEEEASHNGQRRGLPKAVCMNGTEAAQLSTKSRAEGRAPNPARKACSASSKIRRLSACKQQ
Source text: as §1

[1] = 10 µM, n=1, kinase BIKE, read-out: Percent inhibition BIKE
[2] = KINOMEscan, 10 µM, n=1, read-out: Percent inhibition, PDGFRA
[3] = 10 µM, n=1, kinase MERTK, read-out: Percent inhibition MERTK
[4] = 10 µM, n=1, kinase CSNK1G1, read-out: Percent inhibition CSNK1G1
[5] = 10 µM, n=1, kinase KIT, read-out: Percent inhibition KIT
[6] = 10 µM, n=1, kinase JAK1(Kin.Dom.1), read-out: Percent inhibition JAK1(Kin.Dom.1)
[7] = 10 µM, n=1, kinase LKB1, read-out: Percent inhibition LKB1
[8] = 10 μM, n = 1, read-out: percent inhibition PDGFRα
[9] = 10 μM, n = 1, read-out: percent inhibition KIT

T2 sequence (P16234 24-1089): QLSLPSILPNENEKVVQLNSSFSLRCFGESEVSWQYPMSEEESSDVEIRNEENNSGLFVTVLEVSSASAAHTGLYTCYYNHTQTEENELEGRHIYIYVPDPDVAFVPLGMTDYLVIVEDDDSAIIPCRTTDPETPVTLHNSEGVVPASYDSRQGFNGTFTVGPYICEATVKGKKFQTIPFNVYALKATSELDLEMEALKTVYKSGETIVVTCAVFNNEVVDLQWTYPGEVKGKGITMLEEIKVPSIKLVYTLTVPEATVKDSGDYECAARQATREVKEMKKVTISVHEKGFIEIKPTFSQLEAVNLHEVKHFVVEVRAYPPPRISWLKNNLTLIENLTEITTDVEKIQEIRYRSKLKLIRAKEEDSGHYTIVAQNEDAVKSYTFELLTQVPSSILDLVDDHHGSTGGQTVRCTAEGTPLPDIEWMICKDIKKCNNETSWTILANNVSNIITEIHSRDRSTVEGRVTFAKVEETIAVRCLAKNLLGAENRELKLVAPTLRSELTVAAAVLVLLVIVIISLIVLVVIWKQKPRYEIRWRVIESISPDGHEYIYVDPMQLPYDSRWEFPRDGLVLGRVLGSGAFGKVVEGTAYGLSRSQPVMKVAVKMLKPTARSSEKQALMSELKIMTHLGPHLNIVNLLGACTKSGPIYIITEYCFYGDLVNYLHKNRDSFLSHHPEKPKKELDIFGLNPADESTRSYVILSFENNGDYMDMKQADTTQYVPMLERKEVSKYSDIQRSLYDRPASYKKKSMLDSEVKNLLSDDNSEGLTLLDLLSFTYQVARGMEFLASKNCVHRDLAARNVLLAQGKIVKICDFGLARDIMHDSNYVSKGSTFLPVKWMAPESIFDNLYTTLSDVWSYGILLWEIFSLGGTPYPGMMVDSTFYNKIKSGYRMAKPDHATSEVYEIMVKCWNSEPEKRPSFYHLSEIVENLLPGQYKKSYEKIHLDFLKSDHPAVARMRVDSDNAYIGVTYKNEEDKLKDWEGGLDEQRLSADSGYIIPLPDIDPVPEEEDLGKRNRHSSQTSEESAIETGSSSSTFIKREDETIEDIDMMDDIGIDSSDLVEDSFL
T6 sequence (P10721 26-976): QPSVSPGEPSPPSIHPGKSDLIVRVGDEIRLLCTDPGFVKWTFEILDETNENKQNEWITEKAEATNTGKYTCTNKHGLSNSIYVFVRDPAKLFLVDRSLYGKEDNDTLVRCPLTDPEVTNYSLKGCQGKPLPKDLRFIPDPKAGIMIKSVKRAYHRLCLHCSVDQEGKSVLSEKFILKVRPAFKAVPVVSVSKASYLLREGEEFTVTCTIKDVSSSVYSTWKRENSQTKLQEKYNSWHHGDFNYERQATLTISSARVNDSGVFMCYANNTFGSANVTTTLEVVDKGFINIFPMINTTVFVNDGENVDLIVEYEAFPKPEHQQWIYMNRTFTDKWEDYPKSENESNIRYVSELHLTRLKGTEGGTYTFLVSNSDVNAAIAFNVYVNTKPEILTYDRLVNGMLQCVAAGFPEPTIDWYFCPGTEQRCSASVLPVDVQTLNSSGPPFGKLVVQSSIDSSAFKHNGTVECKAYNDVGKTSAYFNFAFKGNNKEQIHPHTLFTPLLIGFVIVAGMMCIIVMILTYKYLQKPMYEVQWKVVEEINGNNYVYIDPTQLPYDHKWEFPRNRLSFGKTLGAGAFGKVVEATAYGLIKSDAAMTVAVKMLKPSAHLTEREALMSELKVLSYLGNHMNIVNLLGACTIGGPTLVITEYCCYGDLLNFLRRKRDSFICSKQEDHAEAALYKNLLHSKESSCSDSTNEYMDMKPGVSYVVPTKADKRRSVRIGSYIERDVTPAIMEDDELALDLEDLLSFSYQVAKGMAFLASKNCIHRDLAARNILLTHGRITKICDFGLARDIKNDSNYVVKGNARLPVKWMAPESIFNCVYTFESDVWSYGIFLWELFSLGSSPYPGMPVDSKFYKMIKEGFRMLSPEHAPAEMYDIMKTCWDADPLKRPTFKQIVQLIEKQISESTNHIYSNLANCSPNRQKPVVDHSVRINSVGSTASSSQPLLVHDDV
T4 sequence (Q9HCP0 whole entry): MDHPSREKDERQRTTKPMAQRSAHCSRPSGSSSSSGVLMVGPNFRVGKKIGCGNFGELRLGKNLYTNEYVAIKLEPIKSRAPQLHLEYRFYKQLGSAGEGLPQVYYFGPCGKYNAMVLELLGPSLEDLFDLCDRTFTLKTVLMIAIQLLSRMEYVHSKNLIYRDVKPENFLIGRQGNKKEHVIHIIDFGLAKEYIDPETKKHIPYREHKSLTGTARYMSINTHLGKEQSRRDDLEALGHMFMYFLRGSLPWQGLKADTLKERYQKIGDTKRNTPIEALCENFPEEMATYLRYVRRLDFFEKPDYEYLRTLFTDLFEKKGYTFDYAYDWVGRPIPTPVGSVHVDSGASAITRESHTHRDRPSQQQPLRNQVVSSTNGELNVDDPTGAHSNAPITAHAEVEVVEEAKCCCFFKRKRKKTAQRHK
T5 sequence (P53350 whole entry): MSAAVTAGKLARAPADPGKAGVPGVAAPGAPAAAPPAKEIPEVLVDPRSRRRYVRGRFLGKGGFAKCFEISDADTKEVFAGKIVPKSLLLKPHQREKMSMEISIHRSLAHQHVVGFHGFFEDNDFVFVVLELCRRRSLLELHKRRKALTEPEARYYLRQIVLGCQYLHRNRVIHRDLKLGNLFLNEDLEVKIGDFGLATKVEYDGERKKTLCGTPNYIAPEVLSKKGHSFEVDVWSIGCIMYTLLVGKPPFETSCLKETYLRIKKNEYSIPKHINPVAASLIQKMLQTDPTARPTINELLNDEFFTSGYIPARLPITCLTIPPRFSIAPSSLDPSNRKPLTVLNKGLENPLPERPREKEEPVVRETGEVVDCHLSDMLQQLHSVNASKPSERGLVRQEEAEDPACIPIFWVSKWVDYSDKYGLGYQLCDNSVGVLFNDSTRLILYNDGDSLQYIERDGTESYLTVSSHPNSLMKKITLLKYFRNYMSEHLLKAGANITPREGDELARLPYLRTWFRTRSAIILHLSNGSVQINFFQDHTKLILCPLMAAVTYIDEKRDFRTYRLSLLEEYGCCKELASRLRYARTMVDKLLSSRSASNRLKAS
T1 sequence (Q9NSY1 whole entry): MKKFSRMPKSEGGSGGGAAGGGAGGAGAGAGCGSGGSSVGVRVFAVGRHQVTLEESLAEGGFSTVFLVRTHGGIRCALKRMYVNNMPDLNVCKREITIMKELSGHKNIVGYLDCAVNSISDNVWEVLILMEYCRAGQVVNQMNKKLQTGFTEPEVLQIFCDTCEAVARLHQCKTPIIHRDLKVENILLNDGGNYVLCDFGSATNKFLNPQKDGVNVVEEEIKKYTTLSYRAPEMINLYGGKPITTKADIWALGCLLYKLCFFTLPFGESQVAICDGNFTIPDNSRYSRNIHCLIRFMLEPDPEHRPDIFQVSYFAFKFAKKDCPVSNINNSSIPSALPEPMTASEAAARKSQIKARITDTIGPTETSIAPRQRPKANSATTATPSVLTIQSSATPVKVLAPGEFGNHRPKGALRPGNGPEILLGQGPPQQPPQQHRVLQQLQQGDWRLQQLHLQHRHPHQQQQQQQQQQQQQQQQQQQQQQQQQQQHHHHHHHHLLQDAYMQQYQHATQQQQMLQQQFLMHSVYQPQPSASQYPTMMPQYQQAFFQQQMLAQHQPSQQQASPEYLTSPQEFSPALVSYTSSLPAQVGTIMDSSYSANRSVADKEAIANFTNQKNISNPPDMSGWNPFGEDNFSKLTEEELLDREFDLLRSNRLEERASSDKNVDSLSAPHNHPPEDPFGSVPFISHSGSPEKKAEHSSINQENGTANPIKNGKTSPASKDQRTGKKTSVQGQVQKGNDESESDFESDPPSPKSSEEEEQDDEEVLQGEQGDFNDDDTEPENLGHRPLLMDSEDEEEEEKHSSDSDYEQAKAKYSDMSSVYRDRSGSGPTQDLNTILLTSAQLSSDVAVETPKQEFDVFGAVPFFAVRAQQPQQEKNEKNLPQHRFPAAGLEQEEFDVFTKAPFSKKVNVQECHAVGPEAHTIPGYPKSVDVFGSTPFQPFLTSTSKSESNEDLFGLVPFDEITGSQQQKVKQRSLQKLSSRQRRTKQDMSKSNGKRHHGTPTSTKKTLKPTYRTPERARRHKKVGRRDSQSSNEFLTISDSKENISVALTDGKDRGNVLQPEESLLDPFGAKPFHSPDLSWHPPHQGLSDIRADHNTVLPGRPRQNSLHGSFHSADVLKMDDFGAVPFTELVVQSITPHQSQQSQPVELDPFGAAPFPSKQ
T7 sequence (P23458 583-855 limits assumed): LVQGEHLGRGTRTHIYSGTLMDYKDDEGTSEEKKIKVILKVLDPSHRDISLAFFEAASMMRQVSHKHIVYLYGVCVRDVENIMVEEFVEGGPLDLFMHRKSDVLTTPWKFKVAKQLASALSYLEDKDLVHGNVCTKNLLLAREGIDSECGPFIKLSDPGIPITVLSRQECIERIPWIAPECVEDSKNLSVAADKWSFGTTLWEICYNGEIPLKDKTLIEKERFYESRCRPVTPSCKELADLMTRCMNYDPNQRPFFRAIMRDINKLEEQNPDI

`CN1CCN(c2ccc(Nc3nccc(-c4cnn5ncccc45)n3)cc2C#N)CC1` [Compound 1] was tested, and the inhibition at 10 µM (BIKE; [1]) was 99.1%, the inhibition at 10 µM (PDGFRα; [2]) was 100% and the inhibition at 10 µM (MERTK; [3]) was 98.7%. For the same molecule, the inhibition at 10 µM (CSNK1G1; [4]) was 100%, the inhibition at 10 µM (PLK1) was 0% and the inhibition at 10 µM (KIT; [5]) was 100%. The inhibition at 10 µM (JAK1(JH2); [6]) was 100% and the inhibition at 10 µM (LKB1; [7]) was 100%.

`COc1ccc(Nc2nccc(-c3cnn4ncccc34)n2)cc1` [Compound 2] was tested, and the inhibition at 10 µM (BIKE; [1]) was 96.5%, the inhibition at 10 µM (PDGFRα; [2]) was 99.9% and the inhibition at 10 µM (MERTK; [3]) was 65.9%. It also gave an inhibition at 10 µM (CSNK1G1; [4]) of 75.9%, an inhibition at 10 µM (PLK1) of 97.2% and an inhibition at 10 µM (KIT; [5]) of 100%. It also gave an inhibition at 10 µM (JAK1(JH2); [6]) of 95.5% and an inhibition at 10 µM (LKB1; [7]) of 96.1%.

With `Cc1ccc(O)cc1Nc1ccnc(Nc2cccc(C(N)=O)c2)n1` [Compound 3] the inhibition at 10 µM (BIKE; [1]) was 0%, the inhibition at 10 µM (PDGFRα; [2]) was 99.2% and the inhibition at 10 µM (MERTK; [3]) was 0%. It also gave an inhibition at 10 µM (CSNK1G1; [4]) of 82.5%, an inhibition at 10 µM (PLK1) of 0% and an inhibition at 10 µM (KIT; [5]) of 100%. For the same molecule, the inhibition at 10 µM (JAK1(JH2); [6]) was 0% and the inhibition at 10 µM (LKB1; [7]) was 74.3%.

With `Cc1ccc(O)cc1N(C)c1ccnc(Nc2cccc(S(N)(=O)=O)c2)n1` [Compound 4] the inhibition at 10 µM (BIKE; [1]) was 0%, the inhibition at 10 µM (PDGFRα; [2]) was 100% and the inhibition at 10 µM (MERTK; [3]) was 77.6%. For the same molecule, the inhibition at 10 µM (CSNK1G1; [4]) was 0%, the inhibition at 10 µM (PLK1) was 0% and the inhibition at 10 µM (KIT; [5]) was 100%. It also gave an inhibition at 10 µM (JAK1(JH2); [6]) of 0% and an inhibition at 10 µM (LKB1; [7]) of 77.3%.

Molecule `Fc1cccc(COc2ccc(Nc3ncnc4c3CN(CCN3CCOCC3)CC4)cc2Cl)c1` [Compound 6] has an inhibition at 10 µM (BIKE; [1]) of 0%, an inhibition at 10 µM (PDGFRα; [2]) of 0% and an inhibition at 10 µM (MERTK; [3]) of 0%. The inhibition at 10 µM (CSNK1G1; [4]) was 0%, the inhibition at 10 µM (PLK1) was 0% and the inhibition at 10 µM (KIT; [5]) was 0%. The inhibition at 10 µM (JAK1(JH2); [6]) was 0% and the inhibition at 10 µM (LKB1; [7]) was 0%.

For `COc1cc(Nc2nccc(-c3sc(N)nc3-c3cccc(NC(=O)c4c(F)cccc4F)c3)n2)cc(OC)c1OC` [Compound 7], the inhibition at 10 µM (BIKE; [1]) was 0%, the inhibition at 10 µM (PDGFRα; [2]) was 100% and the inhibition at 10 µM (MERTK; [3]) was 99.6%. The inhibition at 10 µM (CSNK1G1; [4]) was 0%, the inhibition at 10 µM (PLK1) was 0% and the inhibition at 10 µM (KIT; [5]) was 100%. It also gave an inhibition at 10 µM (JAK1(JH2); [6]) of 0% and an inhibition at 10 µM (LKB1; [7]) of 0%.

`C[C@@H](Oc1cc(-c2cnc3ccccn23)sc1C(N)=O)c1ccccc1Cl` [Compound 8] gave an inhibition at 10 µM (BIKE; [1]) of 99.4%, an inhibition at 10 µM (PDGFRα; [2]) of 0% and an inhibition at 10 µM (MERTK; [3]) of 87.6%. For the same molecule, the inhibition at 10 µM (CSNK1G1; [4]) was 0%, the inhibition at 10 µM (KIT; [5]) was 0% and the inhibition at 10 µM (JAK1(JH2); [6]) was 87.8%. The inhibition at 10 µM (LKB1; [7]) was 98.3%.

Work on `c1ccc(COc2cccc(-c3ccnc4[nH]ccc34)c2)cc1` [Compound 9] yielded an inhibition at 10 µM (BIKE; 10 μM, n = 1, read-out: percent inhibition BIKE) of no less than 90%, an inhibition at 10 µM (BIKE; [1]) of 94.9% and an inhibition at 10 µM (PDGFRα; [2]) of 0%. The inhibition at 10 µM (MERTK; 10 μM, n = 1, read-out: percent inhibition MERTK) was no less than 90%, the inhibition at 10 µM (MERTK; [3]) was 94.1% and the inhibition at 10 µM (CSNK1G1; [4]) was 0%. It also gave an inhibition at 10 µM (PLK1) of 0%, an inhibition at 10 µM (KIT; [5]) of 0% and an inhibition at 10 µM (JAK1(JH2); [6]) of 0%. The inhibition at 10 µM (LKB1; 10 μM, n = 1, read-out: percent inhibition LKB1) was no less than 99% and the inhibition at 10 µM (LKB1; [7]) was 99.5%.

For `Clc1ccc(Nc2ncc(-c3ccccc3)s2)cc1` [Compound 10], the inhibition at 10 µM (BIKE; [1]) was 0%, the inhibition at 10 µM (PDGFRα; [8]) was greater than 90% and the inhibition at 10 µM (PDGFRα; [2]) was 98.9%. It also gave an inhibition at 10 µM (MERTK; [3]) of 0%, an inhibition at 10 µM (CSNK1G1; [4]) of 0% and an inhibition at 10 µM (PLK1) of 0%. For the same molecule, the inhibition at 10 µM (KIT; [9]) was greater than 99%, the inhibition at 10 µM (KIT; [5]) was 99% and the inhibition at 10 µM (JAK1(JH2); [6]) was 0%. For the same molecule, the inhibition at 10 µM (LKB1; [7]) was 67.6%.

Molecule `Nc1ncc2c(-c3ccncc3)c[nH]c2n1` [Compound 11] has an inhibition at 10 µM (BIKE; [1]) of 0%, an inhibition at 10 µM (PDGFRα; [8]) of no less than 99% and an inhibition at 10 µM (PDGFRα; [2]) of 100%. It also gave an inhibition at 10 µM (MERTK; [3]) of 0%, an inhibition at 10 µM (CSNK1G1; 10 μM, n = 1, read-out: percent inhibition CSNK1G1) of no less than 99% and an inhibition at 10 µM (CSNK1G1; [4]) of 99.3%. For the same molecule, the inhibition at 10 µM (PLK1) was 0%, the inhibition at 10 µM (KIT; [9]) was no less than 99% and the inhibition at 10 µM (KIT; [5]) was 99.3%. The inhibition at 10 µM (JAK1(JH2); 10 μM, n = 1, read-out: percent inhibition JAK1(JH2)) was no less than 99%, the inhibition at 10 µM (JAK1(JH2); [6]) was 99% and the inhibition at 10 µM (LKB1; [7]) was 80%.
